This is an account of results in publication PMC6325219, “Preclinical Characterization of NVR 3-778, a First-in-Class Capsid Assembly Modulator against Hepatitis B Virus” (Antimicrobial Agents and Chemotherapy, 2018).

Series [1] relates to HBV core protein variant T109M. The series is described as follows: microbe, parasite or virus in culture. The source says:
Plasmids containing HBV DNA with rtN236T, rtA181V, rtA181V/N236T, and rtL180M/M204V/N236T were generated using the GT B WT or rtL180M/M204V DNA-containing plasmids and site-directed mutagenesis (Agilent Technologies). A panel of nine different HBV core variants (cW102G, cW102R, cI105V, cI105L, cI105T, cT109S, cT109M, cT109I, and cY118F) was generated, also using the GT B WT DNA-containing plasmid and site-directed mutagenesis. The full-length genome from all plasmids was sequenced to confirm that only the intended nucleotide change(s) was present. Finally, HBV sequences from genotypes A (GenBank accession number AF305422), C (GenBank accession number AB033550), D (GenBank accession number V01460), E (GenBank accession number AB274971), F (GenBank accession number AB036912), G (GenBank accession number AF160501), and H (GenBank accession number AB375159) were gene synthesized as 1.1 times the genome length together with part of the CMV promoter at the 5′ end. The gene-synthesized piece was validated by sequencing and subcloned into the pCMV-HBV plasmid using the restriction sites SalI and NdeI (Genewiz, USA).
HepG2 cells were seeded in 96-well plates at a density of 20,000 cells/well and allowed to attach overnight at 37°C in 5% CO2. Cells were cotransfected with the HBV plasmids (100 ng/well) and a Gaussia expression plasmid (10 ng/well) (Thermo Scientific) using the Lipofectamine LTX Plus transfection reagent (Life Technologies). Transfection mixtures were removed after overnight incubation, and cells were treated with serially diluted NVR 3-778 at a final dimethyl sulfoxide (DMSO) concentration of 0.5%. After 3 days of incubation with the compound, the supernatants were collected and secreted Gaussia luciferase was measured using a Gaussia Flash luciferase assay kit (Thermo Scientific). Cells were lysed with 0.33% NP-40 (Thermo Scientific), and the cytoplasmic fractions were treated with 2 units of Turbo DNase (Invitrogen) and 10 units of S7 nuclease (Roche) in CutSmart buffer (New England Biolabs) containing 25 µM CaCl2 (G-Biosciences) at 37°C for 60 min, followed by inactivation of the enzymes at 75°C for 15 min. Samples were diluted into lysis buffer (Affymetrix) containing 2.5 µg proteinase K (Affymetrix) at 50°C for 40 min. Intracellular encapsidated HBV DNA was denatured for 30 min at 25°C in 0.2 M NaOH (Sigma) and incubated with HBV DNA probes designed to hybridize to the minus-strand HBV DNA (Affymetrix). The denatured DNA was subsequently detected using a QuantiGene assay kit, according to the branched DNA (bDNA) assay recommended by the manufacturer (Affymetrix).
To determine percent inhibition, the mean background signal from wells containing only culture medium was subtracted from the signal for all other samples, and percent inhibition at each compound concentration was calculated by normalization to the signals for HepG2.2.15 cells treated with 0.5% DMSO. […] Both CalcuSyn and MacSynergy II (Ann Arbor, MI) software were used to evaluate the effect of compound combinations ([27]). After data analysis at the 95% confidence level, values of synergy or antagonism of <25 µM^2% were defined as insignificant, those between 25 and 50 µM^2% were defined as minor, those between 50 and 100 µM^2% were defined as moderate, and those of >100 µM^2% were defined as strong.

The next series concerns β-actin mRNA. The series is described as follows: Host β-actin mRNA in PHH during de novo infection study. Format: cell-based, human. To be noted: 11 days, highest concentration tested 30 μM. On the procedure:
Cryopreserved PHH (Life Technologies) were seeded at 40,000 cells/well 1 day before infection. The HBV inoculum, concentrated from the supernatants of HepG2.2.15 cells, was prepared at 200 genome equivalents/cell in PHH medium (DMEM containing 10% FBS and a supplement cocktail containing HEPES, L-proline, insulin epidermal growth factor, dexamethasone, and ascorbic acid-2-phosphate, as previously described) with 2% DMSO and 4% polyethylene glycol (PEG) 8000 (Sigma). Compounds were serially diluted in DMSO at 50-fold strength and added to PHH medium containing the HBV inoculum, prior to infecting the PHH. After overnight incubation, the infection mixtures were removed and the cells were replenished with PHH medium containing freshly diluted compounds. On day 5 and day 8 postinfection, the media containing the compounds were removed and the cells were replenished with PHH medium containing freshly diluted compounds. […] HBV DNA, HBsAg, and HBeAg were determined from the supernatants of infected PHH using bDNA assays (Affymetrix) and HBsAg or HBeAg chemiluminescence immunoassay kits (Autobio), as recommended by the manufacturers. Intracellular total HBV RNA mRNA and host mRNA levels were monitored by using the QuantiGene assays (Affymetrix) and probe sets that hybridized to the X region, which is common to all HBV transcripts, and the host β-actin mRNA, respectively.

A value given as a limit tells only on which side of the number the result lay.

Consider `O=C(Nc1cc(F)c(F)c(F)c1)c1ccc(F)c(S(=O)(=O)N2CCC(O)CC2)c1` [NVR 3-778], for which, in series [1] (Hepatitis B virus, HepG2, read-out: EC50, core variant T109M), the EC50 amounted to 0.28 ± 0.13 µM. Besides, the “EC50 FC, T109M” value in series [1] (ratio of mean EC50 for core variant over wild-type HBV) is recorded as 1.2 fold.

On to `Nc1ccn([C@@H]2CS[C@H](CO)O2)c(=O)n1` [LMV, lamivudine, reference compound], for which, in the series on β-actin mRNA, the “CC50 (EC50), β-actin mRNA” value was greater than 30 µM and the “CC90 (EC90 column), β-actin mRNA” value was greater than 30 µM.
